Assay results reported in ChEMBL document CHEMBL2010784 (ACS Med Chem Lett, 2011).

tested on: Vaccinia virus; experiment: Antiviral activity against Vaccinia virus Lederle infected in HEL cells assessed as inhibition of viral-induced cytopathogenicity; assay type: functional, organism-based; details: Orthopoxvirus vaccinia

First: C#C[C@]1(CO)S[C@@H](n2ccc(N)nc2=O)C[C@@H]1O
Second: C#C[C@]1(CO)S[C@@H](n2cnc3c(=O)[nH]c(N)nc32)C[C@@H]1O
The EC50 of the first is 4.2-fold lower: 6.5 µM for the first, 27 µM for the second.

Going from `C#C[C@]1(CO)S[C@@H](n2cnc3c(N)ncnc32)C[C@@H]1O` to `Nc1nc2c(ncn2COC(CO)CO)c(=O)[nH]1` [GANCICLOVIR], the EC50 rises from 52 µM to 100 µM (1.9-fold).
